Measurements from the supplement of paper PMC10331698.
± gives the standard deviation of the averaged measurements.

Experiments:
Experiment in all cases: level (log10 ratio to DMSO vehicle control); higher = higher biomarker level / cell amount than vehicle control
Details in all cases: in DMSO
[1] = compound: CNS(=O)(=O)C(F)(F)C(F)(F)C(F)(F)C(F)(F)C(F)(F)C(F)(F)C(F)(F)C(F)(F)F [N-Methylperfluorooctanesulfonamide]
Protocol: (§1)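 BioMAP Diversity Plus panel of 12 human primary cell co-culture systems (3C, 4H, LPS, SAg, BT, BF4T, BE3C, CASM3C, HDF3CGF, KF3CT, MyoF, Mphg). Compounds were added 1 h before stimulation and left for 24 h (MyoF 48 h; BT 72 h for soluble read-outs or 6 d for IgG). Biomarkers were read by ELISA, cytotoxicity by SRB, PBMC viability and proliferation by Alamar Blue. Each well value was divided by the mean of 8 DMSO control wells on the same plate and log10 transformed; duplicate blinded samples were tested at 4 concentrations.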

[2] = compound: C=CC(=O)OCCC(F)(F)C(F)(F)C(F)(F)C(F)(F)F [2-(Perfluorobutyl)ethyl acrylate]
Protocol: as §1

[3] = compound: NC(=O)C(F)(F)C(F)(F)C(F)(F)C(F)(F)C(F)(F)C(F)(F)C(F)(F)F [Perfluorooctanamide]
Protocol: as §1

[4] = compound: O=C(O)C(F)(F)C(F)(F)C(F)(F)C(=O)O [Hexafluoroglutaric acid]
Protocol: as §1

[5] = compound: O=P(O)(O)CCC(F)(F)C(F)(F)C(F)(F)C(F)(F)C(F)(F)C(F)(F)C(F)(F)C(F)(F)F [((Perfluorooctyl)ethyl)phosphonic acid]
Protocol: as §1

[6] = compound: FC(F)(F)C(F)(F)C(F)(F)C(F)(F)C(F)(F)C(F)(F)C(F)(F)CCI [1-Iodo-1H,1H,2H,2H-perfluorononane]
Protocol: as §1

[7] = compound: OCC(F)(F)C(F)(F)C(F)(F)F [1H,1H-Heptafluorobutanol]
Protocol: as §1

Test System	level (log10) ([1]; 6700 nM)	level (log10) ([1]; 20000 nM)	level (log10) ([1]; 60000 nM)	level (log10) ([2]; 6700 nM)	level (log10) ([2]; 20000 nM)	level (log10) ([2]; 60000 nM)	level (log10) ([3]; 6700 nM)	level (log10) ([3]; 20000 nM)	level (log10) ([3]; 60000 nM)	level (log10) ([4]; 6700 nM)	level (log10) ([4]; 20000 nM)	level (log10) ([4]; 60000 nM)	level (log10) ([5]; 6700 nM)	level (log10) ([5]; 20000 nM)	level (log10) ([5]; 60000 nM)	level (log10) ([6]; 6700 nM)	level (log10) ([6]; 20000 nM)	level (log10) ([7]; 6700 nM)	level (log10) ([7]; 20000 nM)	level (log10) ([7]; 60000 nM)
BF4T:CD54/ICAM-1	0.009 ± 0.024	0.013 ± 0.0085	0.028 ± 0.011	-0.0085 ± 0.0078	-0.013 ± 0.0099	-0.064 ± 0.014	-0.0175 ± 0.0064	-0.006 ± 0.014	-0.015 ± 0.0028	0.0025 ± 0.005	-0.01 ± 0.0057	0.006 ± 0.011	0.0035 ± 0.029	0.001 ± 0.031	-0.0035 ± 0.046	-0.007 ± 0.018	-0.0345 ± 0.0064	0.0035 ± 0.0021	0.008 ± 0.0085	0.001 ± 0.013
LPS:IL-1alpha	0.0405 ± 0.071	0.107 ± 0.067	0.124 ± 0.078	0.009 ± 0.023	0.031 ± 0.013	0.02 ± 0.021	-0.032 ± 0.033	-0.003 ± 0.047	-0.0395 ± 0.0092	-0.023 ± 0.02	-0.0325 ± 0.0064	0.002 ± 0.037	-0.0215 ± 0.043	-0.0045 ± 0.029	-0.024 ± 0.13	-0.008 ± 0.041	0.031 ± 0.016	-0.028 ± 0.025	-0.068 ± 0.0085	0.0095 ± 0.015
BT:sIL-17F	0.016 ± 0.18	0.066 ± 0.56	-0.385 ± 0.26	-0.169 ± 0.0071	-0.393 ± 0.017	-0.673 ± 0.061	0.0205 ± 0.0064	-0.0165 ± 0.035	-0.0955 ± 0.1	0.046 ± 0.071	0.0335 ± 0.05	-0.004 ± 0.0085	-0.094 ± 0.081	0.035 ± 0.025	-0.0045 ± 0.088	0.062 ± 0.023	0.0585 ± 0.011	-0.007 ± 0.035	-0.0425 ± 0.29	-0.0385 ± 0.032
3C:HLA-DR	-0.0605 ± 0.012	-0.102 ± 0.016	-0.072 ± 0.028	0.035 ± 0.013	0.0285 ± 0.0035	-0.046 ± 0.058	0.001 ± 0.034	0.002 ± 0.017	0.0095 ± 0.019	0.0225 ± 0.035	0.0315 ± 0.047	0.038 ± 0.042	0.005 ± 0.0085	0.001 ± 0.0042	-0.0285 ± 0.023	-0.001 ± 0.017	0.0155 ± 0.025	-0.0025 ± 0.0021	0.0035 ± 0.012	0.005 ± 0.014
4H:CD87/uPAR	-0.012 ± 0.12	-0.0565 ± 0.071	-0.046 ± 0.044	-0.005 ± 0.038	0.0055 ± 0.0035	0.025 ± 0.0085	-0.0055 ± 0.037	0.0105 ± 0.021	-0.0285 ± 0.012	-0.046 ± 0.023	-0.027 ± 0.057	-0.005 ± 0.031	0.018 ± 0.058	-0.003 ± 0.024	0.102 ± 0.0064	0.0135 ± 0.00071	0.0025 ± 0.026	-0.0055 ± 0.035	0.004 ± 0.071	0.032 ± 0.09
BF4T:MMP-1	0.012 ± 0.02	0.0105 ± 0.015	-0.0105 ± 0.044	-0.003 ± 0.044	-0.003 ± 0.051	0.047 ± 0.031	-0.0195 ± 0.0078	0.0055 ± 0.005	-0.0385 ± 0.011	0.0035 ± 0.013	0.0215 ± 0.012	0.018 ± 0.0099	-0.005 ± 0.0014	0.0075 ± 0.022	0.007 ± 0.05	0.001 ± 0.035	0.016 ± 0.033	0.002 ± 0.013	0.0085 ± 0.00071	-0.002 ± 0.018
BT:sIL-17A	0.151 ± 0.14	-0.065 ± 0.0085	-0.0925 ± 0.3	-0.217 ± 0.17	-0.465 ± 0.067	-1.03 ± 0.46	0.122 ± 0.016	0.0965 ± 0.0035	0.034 ± 0.26	0.02 ± 0.073	-0.0205 ± 0.21	-0.0585 ± 0.12	0.0985 ± 0.00071	0.132 ± 0.044	0.0985 ± 0.083	0.0035 ± 0.1	-0.0305 ± 0.15	-0.145 ± 0.19	-0.166 ± 0.005	-0.0935 ± 0.25
BF4T:Keratin 8/18	-0.02 ± 0.0042	-0.0185 ± 0.013	0.0135 ± 0.023	-0.003 ± 0.055	0.0035 ± 0.059	0.0085 ± 0.036	-0.023 ± 0.018	0.002 ± 0.021	-0.0075 ± 0.023	-0.006 ± 0.013	-0.0145 ± 0.015	0.0005 ± 0.00071	-0.016 ± 0.017	-0.0195 ± 0.005	-0.0155 ± 0.042	-0.016 ± 0.052	-0.0135 ± 0.0092	-0.036 ± 0.065	-0.025 ± 0.037	-0.019 ± 0.037
4H:CCL26/Eotaxin-3	-0.0005 ± 0.018	-0.0415 ± 0.032	-0.0675 ± 0.025	-0.0355 ± 0.039	-0.006 ± 0.0071	0.0135 ± 0.0078	0.033 ± 0.055	0.021 ± 0.031	0.0275 ± 0.04	0.0155 ± 0.035	0.0155 ± 0.013	0.0235 ± 0.0078	-0.011 ± 0.0085	-0.025 ± 0.0057	-0.108 ± 0.033	0.018 ± 0.0057	-0.004 ± 0.028	0.017 ± 0.03	0.01 ± 0.014	0.0255 ± 0.021
LPS:CD142/Tissue Factor	-0.0275 ± 0.016	-0.0395 ± 0.016	-0.074 ± 0.018	0.027 ± 0.016	-0.027 ± 0.088	-0.177 ± 0.12	-0.0585 ± 0.0092	0.0025 ± 0.032	-0.002 ± 0.0042	0.0325 ± 0.08	-0.0085 ± 0.077	-0.0285 ± 0.081	-0.023 ± 0.0014	-0.01 ± 0.0099	0.032 ± 0.033	0.046 ± 0.073	-0.0215 ± 0.09	0.012 ± 0.05	0.015 ± 0.034	-0.0125 ± 0.0078
